This is an account of results in ChEMBL document CHEMBL1141476, “Novel echinocandin antifungals. Part 1: novel side-chain analogs of the natural product FR901379” (Bioorg Med Chem Lett, 2008).

Each structure is given as a SMILES string. Values after ≈ are worked out from the molar mass of the structure shown. Starred links: 1 amine or outer side, 2 acyl side, 3 side chain; linkers in the order of their positions; H or OH if unused. Positions of bridges follow the written chain, without caps; N, C: chain ends. Non-standard residues stand in square brackets, D forms with d. Residues, ends and D or L forms follow the SMILES beside them. *: point of attachment. hTyr(3S-OH,4S-OH,3'-OSO3H) = N[C@H](C(=O)O)[C@H](O)[C@@H](O)c1ccc(O)c(OS(=O)(=O)O)c1; Orn(4R-OH,5R-OH) = O=C([C@H](C[C@@H](O)[C@@H](O)N[*:3])N[*:1])[*:2]; Orn(4R-OH,5S-OH) = O=C([C@H](C[C@@H](O)[C@H](O)N[*:3])N[*:1])[*:2]; Pro(3S-OH,4S-Me) = C[C@H]1CN[C@H](C(=O)O)[C@H]1O; X1 = CCCCOc1ccc(-c2ccc(-c3ccc(C(=O)*)cc3)cc2)cc1; Benzoyl(4-octyloxy) = CCCCCCCCOc1ccc(C(=O)*)cc1; Gln(3R-OH) = NC(=O)C[C@@H](O)[C@H](N)C(=O)O; Hyp = O=C(O)[C@@H]1C[C@@H](O)CN1

Series [1] relates to Candida albicans. The experiment in a line: Antifungal activity against Candida albicans FP633. The class given is functional.
For series [2], the system named is Aspergillus fumigatus. The experiment in a line: Antifungal activity against Aspergillus fumigatus FP1305. The class given is functional, organism-based.
Series [3] can be described thus: Effect on hemolysis in red blood cells. The class given is ADME, cell-based, Erythrocyte.
For series [4], the system named is Candida albicans. Description: Antifungal activity against Candida albicans FP633 in in vivo model. The class given is functional.
For series [5], the system named is Aspergillus fumigatus. Description: Antifungal activity against Aspergillus fumigatus 8004 in in vivo model. The class given is functional.

As usually defined, the MIC is the lowest concentration that inhibits growth of the organism. A word on the IC50: it is the concentration that gives 50% inhibition. Broadly, the ED50 is the midpoint of the dose-response relation. Low readings indicate greater potency, high ones weaker potency. Compound `CCCCCCCCOc1ccc2cc(C(=O)N[C@@H]3C[C@@H](O)[C@@H](O)NC(=O)[C@@H]4[C@@H](O)[C@@H](C)CN4C(=O)[C@H]([C@H](O)CC(N)=O)NC(=O)[C@H]([C@H](O)[C@@H](O)c4ccc(O)c(OS(=O)(=O)[O-])c4)NC(=O)[C@@H]4C[C@@H](O)CN4C(=O)C([C@@H](C)O)NC3=O)ccc2c1.[Na+]` (stereo not given in full) displayed an MIC in series [1] of 0.1 µg/mL. This compound also yielded an IC50 in series [2] of 0.003 µg/mL. The LC30 in series [3] is more than 10000 µg/mL. The ED50 came to 0.46 mg/kg in series [4] and 0.79 mg/kg in series [5].
With `CCCCCCCCCCOc1ccc2cc(C(=O)N[C@@H]3C[C@@H](O)[C@@H](O)NC(=O)[C@@H]4[C@@H](O)[C@@H](C)CN4C(=O)[C@H]([C@H](O)CC(N)=O)NC(=O)[C@H]([C@H](O)[C@@H](O)c4ccc(O)c(OS(=O)(=O)[O-])c4)NC(=O)[C@@H]4C[C@@H](O)CN4C(=O)C([C@@H](C)O)NC3=O)ccc2c1.[Na+]` (stereo not given in full), in series [1], the MIC amounted to 0.2 µg/mL. The same compound gave an IC50 in series [2] of 0.015 µg/mL. Also, the LC30 in series [3] amounted to 750 µg/mL.
The corresponding values for `CCCCCCCOc1ccc(-c2ccc(C(=O)N[C@@H]3C[C@@H](O)[C@@H](O)NC(=O)[C@@H]4[C@@H](O)[C@@H](C)CN4C(=O)[C@H]([C@H](O)CC(N)=O)NC(=O)[C@H]([C@H](O)[C@@H](O)c4ccc(O)c(OS(=O)(=O)[O-])c4)NC(=O)[C@@H]4C[C@@H](O)CN4C(=O)C([C@@H](C)O)NC3=O)cc2)cc1.[Na+]` (stereo not given in full) are 0.1 µg/mL, 0.002 µg/mL and 910 µg/mL.
`CCCCCCOc1ccc2cc(C(=O)N[C@@H]3C[C@@H](O)[C@@H](O)NC(=O)[C@@H]4[C@@H](O)[C@@H](C)CN4C(=O)[C@H]([C@H](O)CC(N)=O)NC(=O)[C@H]([C@H](O)[C@@H](O)c4ccc(O)c(OS(=O)(=O)[O-])c4)NC(=O)[C@@H]4C[C@@H](O)CN4C(=O)C([C@@H](C)O)NC3=O)ccc2c1.[Na+]` (stereo not given in full) came in with an MIC in series [1] of 0.78 µg/mL. Also, the 50% inhibitory concentration (IC50) in series [2] came out at 0.025 µg/mL. In series [3], this compound yielded an LC30 of more than 10000 µg/mL.
Turning to `CCCCCCCCCCCCOc1ccc2cc(C(=O)N[C@@H]3C[C@@H](O)[C@@H](O)NC(=O)[C@@H]4[C@@H](O)[C@@H](C)CN4C(=O)[C@H]([C@H](O)CC(N)=O)NC(=O)[C@H]([C@H](O)[C@@H](O)c4ccc(O)c(OS(=O)(=O)[O-])c4)NC(=O)[C@@H]4C[C@@H](O)CN4C(=O)C([C@@H](C)O)NC3=O)ccc2c1.[Na+]` (stereo not given in full), the lowest concentration to inhibit growth in series [1] (MIC) was 0.78 µg/mL. The compound also registered an LC30 in series [3] of 410 µg/mL.
Take `CCCCCCCCOc1ccc(/C=C/C(=O)N[C@@H]2C[C@@H](O)[C@@H](O)NC(=O)[C@@H]3[C@@H](O)[C@@H](C)CN3C(=O)[C@H]([C@H](O)CC(N)=O)NC(=O)[C@H]([C@H](O)[C@@H](O)c3ccc(O)c(OS(=O)(=O)[O-])c3)NC(=O)[C@@H]3C[C@@H](O)CN3C(=O)C([C@@H](C)O)NC2=O)cc1.[Na+]` (stereo not given in full): the MIC in series [1] stood at 0.78 µg/mL. The same compound showed an LC30 in series [3] of more than 10000 µg/mL.
`CCCCCOc1ccc(-c2ccc(/C=C/C(=O)N[C@@H]3C[C@@H](O)[C@@H](O)NC(=O)[C@@H]4[C@@H](O)[C@@H](C)CN4C(=O)[C@H]([C@H](O)CC(N)=O)NC(=O)[C@H]([C@H](O)[C@@H](O)c4ccc(O)c(OS(=O)(=O)[O-])c4)NC(=O)[C@@H]4C[C@@H](O)CN4C(=O)C([C@@H](C)O)NC3=O)cc2)cc1.[Na+]` (stereo not given in full) registered an MIC in series [1] of 0.05 µg/mL. The same compound returned an IC50 in series [2] of 0.002 µg/mL. In series [3], this compound yielded an LC30 of 3950 µg/mL.
As for `CCCCCCCOc1ccc2cc(C(=O)N[C@@H]3C[C@@H](O)[C@@H](O)NC(=O)[C@@H]4[C@@H](O)[C@@H](C)CN4C(=O)[C@H]([C@H](O)CC(N)=O)NC(=O)[C@H]([C@H](O)[C@@H](O)c4ccc(O)c(OS(=O)(=O)[O-])c4)NC(=O)[C@@H]4C[C@@H](O)CN4C(=O)C([C@@H](C)O)NC3=O)ccc2c1.[Na+]` (stereo not given in full), in series [1], the MIC stood at 0.39 µg/mL. This compound returned a 50% inhibitory concentration (IC50) in series [2] of 0.004 µg/mL. In series [3], this compound returned an LC30 of more than 10000 µg/mL.
The corresponding values for `CCCCCCCCCCOc1ccc(C(=O)N[C@@H]2C[C@@H](O)[C@@H](O)NC(=O)[C@@H]3[C@@H](O)[C@@H](C)CN3C(=O)[C@H]([C@H](O)CC(N)=O)NC(=O)[C@H]([C@H](O)[C@@H](O)c3ccc(O)c(OS(=O)(=O)[O-])c3)NC(=O)[C@@H]3C[C@@H](O)CN3C(=O)C([C@@H](C)O)NC2=O)cc1.[Na+]` (stereo not given in full) are 0.2 µg/mL, 0.005 µg/mL and 10000 µg/mL.
Take `CCCCOc1ccc(-c2ccc(-c3ccc(C(=O)N[C@H]4C[C@@H](O)[C@@H](O)NC(=O)[C@@H]5[C@@H](O)[C@@H](C)CN5C(=O)[C@H]([C@H](O)CC(N)=O)NC(=O)[C@H]([C@H](O)[C@@H](O)c5ccc(O)c(OS(=O)(=O)O)c5)NC(=O)[C@@H]5C[C@@H](O)CN5C(=O)[C@H]([C@@H](C)O)NC4=O)cc3)cc2)cc1` (X1-[Orn(4R-OH,5R-OH)]T[Hyp][hTyr(3S-OH,4S-OH,3'-OSO3H)][Gln(3R-OH)][Pro(3S-OH,4S-Me)]; lactam 1-C) [listing 1 of 2 here]: it took 0.002 µg/mL (≈ 1.58 nM) to reach half-maximal inhibition in series [2] (IC50). This compound also showed an LC30 in series [3] of 370 µg/mL (≈ 292000 nM).
`CCCCOc1ccc(-c2ccc(-c3ccc(C(=O)N[C@H]4C[C@@H](O)[C@@H](O)NC(=O)[C@@H]5[C@@H](O)[C@@H](C)CN5C(=O)[C@H]([C@H](O)CC(N)=O)NC(=O)[C@H]([C@H](O)[C@@H](O)c5ccc(O)c(OS(=O)(=O)O)c5)NC(=O)[C@@H]5C[C@@H](O)CN5C(=O)[C@H]([C@@H](C)O)NC4=O)cc3)cc2)cc1` (X1-[Orn(4R-OH,5R-OH)]T[Hyp][hTyr(3S-OH,4S-OH,3'-OSO3H)][Gln(3R-OH)][Pro(3S-OH,4S-Me)]; lactam 1-C) [listing 2 of 2 here] gave a minimal inhibitory concentration (MIC) in series [1] of 0.0125 µg/mL (≈ 9.88 nM).
For the compound `CCCCCCCCOc1ccc(C(=O)N[C@H]2C[C@@H](O)[C@H](O)NC(=O)[C@@H]3[C@@H](O)[C@@H](C)CN3C(=O)[C@H]([C@H](O)CC(N)=O)NC(=O)[C@H]([C@H](O)[C@@H](O)c3ccc(O)c(OS(=O)(=O)[O-])c3)NC(=O)[C@@H]3C[C@@H](O)CN3C(=O)[C@H]([C@@H](C)O)NC2=O)cc1.[Na+]` [FR-131535] ({Benzoyl(4-octyloxy)}-[Orn(4R-OH,5S-OH)]T[Hyp][hTyr(3S-OH,4S-OH,3'-OSO3H)][Gln(3R-OH)][Pro(3S-OH,4S-Me)]; lactam 1-C), the MIC in series [1] was determined as 0.78 µg/mL. In series [2], the midpoint of inhibition, the IC50, lay at 0.015 µg/mL. This compound showed an LC30 in series [3] of more than 10000 µg/mL. For the same compound, the median effective dose (ED50) was 3.71 mg/kg in series [4] and 4.31 mg/kg in series [5].
